From patent publication US10519152B2, “Compounds and their use in treating cancer” (AstraZeneca AB, priority 2017, dated 2019)

Molecular target: T1, recombinant human Estrogen Receptor alpha ligand binding domain, residues 307-554 (ER alpha-LBD (GST)) (Homo sapiens, UniProt P03372)
T1 construct: made in house
T1 sequence (P03372 307-554): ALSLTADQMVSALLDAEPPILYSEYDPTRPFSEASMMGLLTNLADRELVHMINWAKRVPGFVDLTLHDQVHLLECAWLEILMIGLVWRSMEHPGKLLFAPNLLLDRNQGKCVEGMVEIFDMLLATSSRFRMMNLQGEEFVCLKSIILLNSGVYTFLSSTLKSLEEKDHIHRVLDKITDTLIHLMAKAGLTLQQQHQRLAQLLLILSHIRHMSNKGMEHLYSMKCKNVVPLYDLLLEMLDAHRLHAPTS
Experiment: ERα binding assay (LanthaScreen TR-FRET competition)
Conditions: TR-FRET competition with Fluormone ES2 tracer, 4 hours at room temperature; single experiment or average of two or more

Question: `Cc1ncsc1-c1ccc(CNC(=O)[C@@H]2C[C@@H](O)CN2C(=O)[C@@H](NC(=O)COCCCCCCCCOc2cc(F)c([C@@H]3c4[nH]c5ccccc5c4C[C@@H](C)N3CC(C)(C)F)c(F)c2)C(C)(C)C)cc1` [Example 12, (2S,4R)-1-((S)-2-(2-((8-(3,5-Difluoro-4-((1R,3R)-2-(2-fluoro-2-methylpropyl)-3-methyl-2,3,4,9-tetrahydro-1H-pyrido[3,4-b]indol-1-yl)phenoxy)octyl)oxy)acetamido)-3,3-dimethylbutanoyl)-4-hydroxy-N-(4-(4-methylthiazol-5-yl)benzyl)pyrrolidine-2-carboxamide] was tested. Which IC50 did it give?
Answer: The IC50 was 1.6 nM.

Question: With `Cc1ncsc1-c1ccc(CNC(=O)[C@@H]2C[C@@H](O)CN2C(=O)[C@@H](NC(=O)COCCCCCNCCOc2cc(F)c([C@@H]3c4[nH]c5ccccc5c4C[C@@H](C)N3CC(C)(C)F)c(F)c2)C(C)(C)C)cc1` [Example 48, (2S,4R)-1-((S)-2-(2-((5-((2-(3,5-difluoro-4-((1R,3R)-2-(2-fluoro-2-methylpropyl)-3-methyl-2,3,4,9-tetrahydro-1H-pyrido[3,4-b]indol-1-yl)phenoxy)ethyl)amino)pentyl)oxy)acetamido)-3,3-dimethylbutanoyl)-4-hydroxy-N-(4-(4-methylthiazol-5-yl)benzyl)pyrrolidine-2-carboxamide] as the compound, how does the IC50 read?
Answer: The IC50 was 1 nM.

Question: How did the IC50 turn out when `Cc1ncsc1-c1ccc(CNC(=O)[C@@H]2C[C@@H](O)CN2C(=O)[C@@H](NC(=O)COCCCCCCOc2cc(F)c([C@@H]3c4[nH]c5ccccc5c4C[C@@H](C)N3CC(C)(C)F)c(F)c2)C(C)(C)C)cc1` [Example 51, (2S,4R)-1-((S)-2-(2-((6-(3,5-difluoro-4-((1R,3R)-2-(2-fluoro-2-methylpropyl)-3-methyl-2,3,4,9-tetrahydro-1H-pyrido[3,4-b]indol-1-yl)phenoxy)hexyl)oxy)acetamido)-3,3-dimethylbutanoyl)-4-hydroxy-N-(4-(4-methylthiazol-5-yl)benzyl)pyrrolidine-2-carboxamide] was run?
Answer: Its IC50 is 2 nM.

Question: `Cc1ncsc1-c1ccc(CNC(=O)[C@@H]2C[C@@H](O)CN2C(=O)[C@@H](NC(=O)COCCCC2CN(CCOc3cc(F)c([C@@H]4c5[nH]c6ccccc6c5C[C@@H](C)N4CC(C)(C)F)c(F)c3)C2)C(C)(C)C)cc1` [Example 47, (2S,4R)-1-((S)-2-(2-(3-(1-(2-(3,5-difluoro-4-((1R,3R)-2-(2-fluoro-2-methylpropyl)-3-methyl-2,3,4,9-tetrahydro-1H-pyrido[3,4-b]indol-1-yl)phenoxy)ethyl)azetidin-3-yl)propoxy)acetamido)-3,3-dimethylbutanoyl)-4-hydroxy-N-(4-(4-methylthiazol-5-yl)benzyl)pyrrolidine-2-carboxamide] was tested. Which IC50 did it give?
Answer: Its IC50 is 0.7 nM.

Question: For `Cc1ncsc1-c1ccc(CNC(=O)[C@@H]2C[C@@H](O)CN2C(=O)[C@@H](NC(=O)CCCOc2ccc(COc3cc(F)c([C@@H]4c5[nH]c6ccccc6c5C[C@@H](C)N4CC(C)(C)F)c(F)c3)nc2)C(C)(C)C)cc1` [Example 161, (2S,4R)-1-((S)-2-(4-((6-((3,5-Difluoro-4-((1R,3R)-2-(2-fluoro-2-methylpropyl)-3-methyl-2,3,4,9-tetrahydro-1H-pyrido[3,4-b]indol-1-yl)phenoxy)methyl)pyridin-3-yl)oxy)butanamido)-3,3-dimethylbutanoyl)-4-hydroxy-N-(4-(4-methylthiazol-5-yl)benzyl)pyrrolidine-2-carboxamide], which IC50 is on record?
Answer: The IC50 was 0.7 nM.

Question: With `Cc1ncsc1-c1ccc(CNC(=O)[C@@H]2C[C@@H](O)CN2C(=O)[C@@H](NC(=O)CCCOc2cccc(COc3cc(F)c([C@@H]4c5[nH]c6ccccc6c5C[C@@H](C)N4CC(C)(C)F)c(F)c3)n2)C(C)(C)C)cc1` [Example 162, (2S,4R)-1-((S)-2-(4-((6-((3,5-Difluoro-4-((1R,3R)-2-(2-fluoro-2-methylpropyl)-3-methyl-2,3,4,9-tetrahydro-1H-pyrido[3,4-b]indol-1-yl)phenoxy)methyl)pyridin-2-yl)oxy)butanamido)-3,3-dimethylbutanoyl)-4-hydroxy-N-(4-(4-methylthiazol-5-yl)benzyl)pyrrolidine-2-carboxamide] as the compound, how does the IC50 read?
Answer: The IC50 was 1.1 nM.

Question: For `Cc1ncsc1-c1ccc(CNC(=O)[C@@H]2C[C@@H](O)CN2C(=O)[C@@H](NC(=O)COCCCCC(=O)NCCOc2cc(F)c([C@@H]3c4[nH]c5ccccc5c4C[C@@H](C)N3CC(C)(C)F)c(F)c2)C(C)(C)C)cc1` [Example 142, (2S,4R)-1-((S)-2-(2-((5-((2-(3,5-Difluoro-4-((1R,3R)-2-(2-fluoro-2-methylpropyl)-3-methyl-2,3,4,9-tetrahydro-1H-pyrido[3,4-b]indol-1-yl)phenoxy)ethyl)amino)-5-oxopentyl)oxy)acetamido)-3,3-dimethylbutanoyl)-4-hydroxy-N-(4-(4-methylthiazol-5-yl)benzyl)pyrrolidine-2-carboxamide], which IC50 is on record?
Answer: Its IC50 is 1.1 nM.

Question: Which IC50 does the source give for `Cc1ncsc1-c1ccc(CNC(=O)[C@@H]2C[C@@H](O)CN2C(=O)[C@@H](NC(=O)COCCOCCOCCOc2cc(F)c([C@@H]3c4[nH]c5ccccc5c4C[C@@H](C)N3C[C@H](C)CO)c(F)c2)C(C)(C)C)cc1` [Example 101, (2S,4R)-1-((S)-2-(tert-butyl)-14-(3,5-difluoro-4-((1R,3R)-2-((S)-3-hydroxy-2-methylpropyl)-3-methyl-2,3,4,9-tetrahydro-1H-pyrido[3,4-b]indol-1-yl)phenoxy)-4-oxo-6,9,12-trioxa-3-azatetradecanoyl)-4-hydroxy-N-(4-(4-methylthiazol-5-yl)benzyl)pyrrolidine-2-carboxamide] here?
Answer: Its IC50 is 3.3 nM.

Question: For `Cc1ncsc1-c1ccc([C@H](C)NC(=O)[C@@H]2C[C@@H](O)CN2C(=O)[C@@H](NC(=O)C(F)(F)OCCOCCCCOc2cc(F)c([C@@H]3c4[nH]c5ccccc5c4C[C@@H](C)N3CC(C)(C)F)c(F)c2)C(C)(C)C)cc1` [Example 122, (2S,4R)-1-((S)-2-(2-(2-(4-(3,5-Difluoro-4-((1R,3R)-2-(2-fluoro-2-methylpropyl)-3-methyl-2,3,4,9-tetrahydro-1H-pyrido[3,4-b]indol-1-yl)phenoxy)butoxy)ethoxy)-2,2-difluoroacetamido)-3,3-dimethylbutanoyl)-4-hydroxy-N—((S)-1-(4-(4-methylthiazol-5-yl)phenyl)ethyl)pyrrolidine-2-carboxamide], which IC50 is on record?
Answer: The IC50 was 1.5 nM.

Question: `Cc1ncsc1-c1ccc(CNC(=O)[C@@H]2C[C@@H](O)CN2C(=O)[C@@H](NC(=O)COCc2ccnc(COc3cc(F)c([C@@H]4c5[nH]c6ccccc6c5C[C@@H](C)N4CC(C)(C)F)c(F)c3)c2)C(C)(C)C)cc1` [Example 134, (2S,4R)-1-((S)-2-(2-((2-((3,5-Difluoro-4-((1R,3R)-2-(2-fluoro-2-methylpropyl)-3-methyl-2,3,4,9-tetrahydro-1H-pyrido[3,4-b]indol-1-yl)phenoxy)methyl)pyridin-4-yl)methoxy)acetamido)-3,3-dimethylbutanoyl)-4-hydroxy-N-(4-(4-methylthiazol-5-yl)benzyl)pyrrolidine-2-carboxamide] was tested. Which IC50 did it give?
Answer: Its IC50 is 0.6 nM.

Question: How did the IC50 turn out when `Cc1ncsc1-c1ccc(CNC(=O)C2CC(O)CN2C(=O)C(NC(=O)COCCOc2cc(F)c(C3c4[nH]c5ccccc5c4CC(C)N3CC(C)(C)F)c(F)c2)C(C)(C)C)cc1` [Example 40, (2S,4R)-1-((S)-2-(2-(2-(3,5-Difluoro-4-((1R,3R)-2-(2-fluoro-2-methylpropyl)-3-methyl-2,3,49-tetrahydro-1H-pyrido[3,4-b]indol-1-yl)phenoxy)ethoxy)acetamido)-3,3-dimethylbutanoyl)-4-hydroxy-N-(4-(4-methylthiazol-5-yl)benzyl)pyrrolidine-2-carboxamide] was run?
Answer: Its IC50 is 1.3 nM.
